Test results published in paper PMC5743070 (The Journal of Biological Chemistry, 2017).

Target: T1, TTD–PHD (UHRF1_126–366) (Homo sapiens, UniProt Q96T88)
T1 construct: His tag (TEV-cleavable) (N); made in house
T1 sequence (Q96T88 126-366): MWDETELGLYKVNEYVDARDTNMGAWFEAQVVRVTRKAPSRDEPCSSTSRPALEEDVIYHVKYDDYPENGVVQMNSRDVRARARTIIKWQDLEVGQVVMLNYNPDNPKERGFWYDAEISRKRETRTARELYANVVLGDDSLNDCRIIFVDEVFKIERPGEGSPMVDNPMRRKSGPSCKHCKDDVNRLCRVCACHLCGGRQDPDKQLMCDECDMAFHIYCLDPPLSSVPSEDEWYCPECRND
Experiment: ITC of H3 peptide binding to TTD–PHD
Procedure: A preliminary peptide injection of 0.06 μl was followed by subsequent 2-μl injections into the sample cell containing 167 μl of 50 μM TTD–PHD. Where indicated, 1.5 mM BPC or 1.5 mM PBR peptide was included in the injection syringe and sample cell. The reported KD and n values are based on the average from two measurements. For ITC measurements of TTD (UHRF1_121–286) interaction with BPC, the protein was buffered in 20 mM Tris (pH 7.4), 50 mM NaCl, and 5% DMSO. BPC was brought to a concentration of 2.5 mM and injected into the sample cell containing 40 μM protein. The data were acquired on a Nano ITC from TA Instruments at 25 °C and fitted with an independent-binding site model using NanoAnalyze software (v3.7.0).
ITC curves showing TTD-PHD binding to methylated (red) and unmethylated (black) H3 peptide.
(1 picture or pasted object on this page, not shown here)

- increase of KD for H3K9me3 (effect of added ligand) (1.5 mM BPC or PBR peptide in syringe and cell, vs apo TTD–PHD): ~5 fold
SMILES: N=C(N)N1CCC(Cc2ccccc2)CC1 [BPC, 4-benzylpiperidine-1-carboximidamide]
- effect on TTD–PHD binding affinity for the histone peptide (1.5 mM BPC (4% DMSO) or 1.5 mM PBR peptide, H3K9me3(1–15)): reduces the TTD–PHD binding affinity for the histone peptide
